The MIC50 is an inhibitory concentration at the 50% level, which refers to growth in some studies and to a panel of isolates in others. A word on the MIC90: it is the lowest concentration that inhibits either 90% of growth or 90% of the strains tested, depending on the study.

The test system of test [1] is P. acnes. Put plainly: MIC and MBC against 16 clinical isolates of P. acnes (broth microdilution, no sebum). In kind it is cell-based, Propionibacterium acnes. The following applies: for MBC Range / MIC Range: NB-00X formulations as μg CPC/ml; for MIC50 / MIC90 / MBC: Cutibacterium acnes. As for the experimental part:
The nanoemulsions (“NB-00X”) comprised, in an aqueous medium, soybean oil, Tween 20® as a nonionic surfactant, ethanol, cetylpyridinium chloride (CPC) as a cationic surfactant, EDTA, and water, and optionally, a thickening agent for the gel formulation.
Each dilution contained varying concentrations of soybean oil, Tween 20®, ethanol, CPC, and EDTA. Combination products were also evaluated; stock emulsions containing NB-00X gel (3 mg CPC/ml)+2% salicyclic acid or NB-00X gel+0.5% benzoyl peroxide (BPO) were serially diluted two-fold and each concentration was tested against 16 P. acnes isolates. In general, the standard methodology was followed for MIC and MBC determination.
Weighing of drugs and potency calculations were done as prescribed by Clinical and Laboratory Standards Institute (1). Dimethyl sulfoxide (DMSO) was used to prepare stock solutions of the water-insoluble compound tetracycline at 100× concentrations. […] Stock solutions of chlorhexidine and NB-00X were prepared at a 4× concentration in DI water.
To prepare intermediate concentrations, 100× stock solutions were serially diluted 1:1 using DMSO or DI water. Final concentrations were made by 1:50 or 1:1 dilutions in Wilkin Chalgren media (1) to give 2× of the test concentrations, with final DMSO concentrations at 1%. 50 μl of these drug concentrations were transferred to 96-well plates using multi-channel pipettes.
P. acnes strains grown on sheep blood agar for 24-48 hrs at 35° C. were used as the sources of inocula for susceptibility studies as per Clinical and Laboratory Standards Institute. […] Within 15 minutes, each well (except the negative growth controls) of the microtiter tray containing the serial dilutions of test compounds received 50 μl of inoculum, resulting into a log2 dilution of both drug and bug in each well. Verification of the colony-forming units in the inoculum was performed by diluting the adjusted inoculum preparation to […] and plating 100 μl on blood agar plate.
Microtiter and blood agar plates were incubated at 35-37° C. for 48 h in a 7.0 L AnaeroPack Jar (Mitsubishi gas chemical; No. 50-70) fitted with an anaerobic gas generating system (Misubishi, No. 10-01) and a dry anaerobic indicator strip (BBL, Becton, Dickinson & Co. #271051). MICs were read visually using a 96-well plate reader fitted with a magnifying mirror (Biodesign of New York). Because of the opacity of benzoyl peroxide, 20 μl of Cell Titer Blue (alamar blue from Promega G8080) was added after 48 hrs; the plates were incubated for an additional hour prior to reading. Colony-forming units were counted after 72 h of incubation to ensure that the initial inocula were between 2-5×10^6 cfu/ml.
The minimal bactericidal concentrations (MBC) for P. acnes were determined by plating 10 μl from the well determined to be the MIC plus 4 wells above the MIC on blood-supplemented Mueller-Hinton agar plate. Inoculated petri plates were incubated for 72 h at 35° C. under anaerobic conditions.
(In general: In broth dilution the organism is exposed to a series of concentrations in liquid medium.)

The subject of test [2] is P. acnes. The test can be described thus: MIC and MBC against 16 P. acnes isolates in the presence of 50% artificial sebum. The conditions noted are these: for increase of MBC90/MBCs in the presence of sebum / increase of MIC90 in the presence of sebum / impact of sebum on microbiological activity (MIC90/MBC90): 50% sebum versus no sebum; for MIC90: Cutibacterium acnes, 16 P. acnes isolates, 50% artificial sebum; for impact of sebum on microbiological activity (MIC90/MBC90): up to the concentrations tested. It counts as cell-based, Propionibacterium acnes. As for the experimental part:
The nanoemulsions (“NB-002”) comprised, in an aqueous medium, soybean oil, Tween 20® as a nonionic surfactant, ethanol, cetylpyridinium chloride (CPC) as a cationic surfactant, EDTA, and water. Artificial sebum was prepared by adding the entire ingredients given in the Table 6 and heating at 60° C. in a water bath, with intermittent stirring until all solids melted resulting in to a clear yellow liquid ([…] et al., “Diffusion properties of model compounds in artificial sebum. Int. J. Pharm., 345:88-94 (2007)). To prepare intermediate concentrations, 100× stock solutions were serially diluted 1:1 using DMSO or DI water. Final concentrations were made by 1:50 dilutions in Wilkin Chalgren media to give 2× of the final test concentrations, with final DMSO concentrations at 1%. 50 μl of these drug concentrations were transferred to 96-well plates using multi-channel pipettes. Sebum was prewarmed to 50° C. and each well received 45 μl of sebum. After ten minutes at 35° C., five microliters of a P. acnes culture at 10^8 colony-forming units/ml was added to each well.

[3] abbreviates: 16 P. acnes isolates, no sebum, read-out: MBC50.
The mark [4] stands for this setting: 16 P. acnes isolates, no sebum, read-out: MBC90.
Setting [5] is: 16 P. acnes isolates, no sebum, listed as chlorhexidine.

Read-outs that look alike come from different tables or passages of the source. Where only a bound is given, the exact number is not on record here.

`O=C(OOC(=O)c1ccccc1)c1ccccc1` [Benzoyl peroxide, benzoyl peroxide]: in the test with P. acnes [1] (16 P. acnes isolates, no sebum), the “MBC Range” value lay within 100 to 400 mg/L, the “MIC Range” value was “≦50-100 μg/ml”, the MIC50 was determined as 50 mg/L and the MIC90 is 50 mg/L. In the test on P. acnes [1] (setting [3]), the MBC came to 200 mg/L. The MBC in the test on P. acnes [1] (setting [4]) was found to be 200 mg/L. In the test with P. acnes [2], the “increase of MBC90/MBCs in the presence of sebum” value is reported as “eight-fold”, the “increase of MIC90 in the presence of sebum” value is given as “eight-fold” and the MIC90 was determined as 400 mg/L.

Consider `[H]/N=C(\N/C(=N/[H])NCCCCCCNC(=N)NC(=N)Nc1ccc(Cl)cc1)Nc1ccc(Cl)cc1` [Chlorhexidine, chlorhexidine], for which, in the test with P. acnes [1] (16 P. acnes isolates, no sebum), the “MBC Range” value is given as “≦10 μg/ml”, the “MIC Range” value is recorded as “≦10 μg/ml”, the MIC50 was at most 10 mg/L and the MIC90 is at most 10 mg/L. In addition, in the test with P. acnes [1] (setting [5]), the “MBC Range” value is at most 10 mg/L and the “MIC Range” value is at most 10 mg/L. The MBC in the test on P. acnes [1] (setting [3]) is at most 10 mg/L. Further, the MBC with P. acnes [1] (setting [4]) was at most 10 mg/L. In the test on P. acnes [2], the “increase of MBC90/MBCs in the presence of sebum” value is recorded as “at least 125 fold”, the “increase of MIC90 in the presence of sebum” value is on record as “at least eight-fold” and the MIC90 stood at 78 mg/L.

For `CCC[C@@H]1C[C@@H](C(=O)N[C@@H]([C@H]2O[C@H](SC)[C@H](O)[C@@H](O)[C@H]2O)[C@H](C)Cl)N(C)C1` [Clindamycin, clindamycin], in the test with P. acnes [1] (16 P. acnes isolates, no sebum), the MIC50 was determined as 2 mg/L. Further, the MIC90 was above 64 mg/L in the test on P. acnes [1] (16 P. acnes isolates, no sebum) and above 64 mg/L with P. acnes [2]. Moreover, the MBC with P. acnes [1] (setting [3]) and in the test on P. acnes [1] (setting [4]) was above 64 mg/L throughout.

For the compound `CC[C@H]1OC(=O)[C@H](C)[C@@H](O[C@H]2C[C@@](C)(OC)[C@@H](O)[C@H](C)O2)[C@H](C)[C@@H](O[C@@H]2O[C@H](C)C[C@H](N(C)C)[C@H]2O)[C@](C)(O)C[C@@H](C)C(=O)[C@H](C)[C@@H](O)[C@]1(C)O` [Erythromycin, erythromycin], the MIC50 in the test with P. acnes [1] (16 P. acnes isolates, no sebum) worked out at 2 mg/L. Besides, the MBC in the test on P. acnes [1] (setting [3]) is above 64 mg/L. The “impact of sebum on microbiological activity (MIC90/MBC90)” value in the test on P. acnes [2] is “did not impact”.

Regarding `O=C(O)c1ccccc1O` [Salicylic acid], in the test with P. acnes [1] (16 P. acnes isolates, no sebum), the MBC90 was 2000 mg/L, the “MIC Range” value lay within 500 to 1000 mg/L, the MIC50 was found to be 1000 mg/L and the MIC90 was 1000 mg/L. In the test with P. acnes [1] (setting [3]), the MBC was 2000 mg/L. Also, in the test with P. acnes [1] (setting [4]), the MBC turned out to be 2000 mg/L. Moreover, in the test on P. acnes [2], the “impact of sebum on microbiological activity (MIC90/MBC90)” value is listed as “not significantly impacted” and the MIC90 worked out at 1000 mg/L.

On to `CN(C)[C@@H]1C(O)=C(C(N)=O)C(=O)[C@@]2(O)C(O)=C3C(=O)c4c(O)cccc4[C@@](C)(O)[C@H]3C[C@@H]12` [Tetracycline, tetracycline], for which the MIC50 in the test on P. acnes [1] (16 P. acnes isolates, no sebum) is 1 mg/L. For the same compound, the MIC90 in the test on P. acnes [1] (16 P. acnes isolates, no sebum) was above 32 mg/L; in the test with P. acnes [2], 32 mg/L. Also, the values for the MBC in the test with P. acnes [1] (setting [3]) and with P. acnes [1] (setting [4]) were above 16 mg/L and above 32 mg/L, respectively. Also, the isolates resistant in the test on P. acnes [1] (share of the P. acnes isolates resistant to the drug) is given as 44%.

For the origin of these results see patent US20100226983A1, “Compositions for treatment and prevention of acne, methods of making the compositions, and methods of use thereof” (NanoBio Corporation, priority 2009, published 2010).
